From patent US10053422B2, “Compounds for the treatment of mTOR pathway related diseases” (Pitney Pharmaceuticals Pty Limited, priority 2012, dated 2018) come the findings set out here.

The test system of assay [1] is cdk2, cdk4, cyclins A, and E. The assay can be described thus: Western blot of cell cycle regulatory proteins. It counts as cell-based. To be noted: MPL 0, 5, 10, 25 μM. As to the method: Whole-protein extracts were obtained and separated by electrophoresis and immunoblots were probed with the indicated antibodies. Western blot analysis showing the levels of these proteins in each extract was analysed using the relevant antibodies. The image represents the exposed radiographic film scanned. The house-keeping gene (GAPDH) was used to confirm similar protein loading and blot transfer.
Whole-protein extracts were obtained and separated by electrophoresis, and immunoblots were probed with the indicated antibodies. Western blot analysis showing the levels of these proteins in each extract was analysed using the relevant antibodies. The image represents the exposed radiographic film scanned. The house-keeping gene (GAPDH) was used to confirm similar protein loading and blot transfer.
Protein expression in cells was determined using western blot analysis. After treatment with the indicated concentrations of MPL, cell lysates were prepared and probed with antibodies for cdk2, cdk4, cyclin A, cyclin E, PARP-1 (1:1000 dilutions; Cell Signalling Technology), and p53 (1:200 dilutions; Santa Cruz Biotechnology).
In general terms: A western blot detects proteins with antibodies after separation by electrophoresis.

The test system of a further assay is OVCAR-3 or A2780 cells. The assay can be described thus: Cell cycle analysis by flow cytometry. It is filed as cell-based, human. As to the method:
OVCAR-3 (FIG. 3a) or A2780 (FIG. 3b) cells were treated with MPL (0, 5, 10 and 25 μmol/L) for 48 hours. Propodium iodide stained cells were analysed for DNA content using flow cytometric analysis. The results (see table) are shown as a percentage of cells in G1, S and G2/M phases. Each value represents mean±SEM of 2 independent experiments.
OVCAR-3 or A2780 cells were treated with MPL (0, 5, 10, 25 μM) for 48 h and examined by flow cytometric analysis (FACS) after staining the cells with PI. The Fig. and data present MPL-induced change in cell distribution in various phases of the cell cycle, here shown as percentage of cells in G1, S and G2/M phases. Each value represents mean±SEM of 2 independent determinations.
The effect of MPL on the cell cycle was determined using standard flow cytometry analysis protocols and procedures. Briefly, 0.7×10^6 […] cells seeded in […] flasks and allowed to adhere overnight were treated with MPL for 24 or 48 h. Cells were collected with trypsinization and pooled with the cells floating in the medium. The cell suspensions were centrifuged, washed with PBS and fixed with methanol. Cells were then washed, resuspended in propodium iodide and ribonuclease A in PBS for 30 min at room temperature and analyzed by flow cytometry (Becton Dickinson FACSort).
A general note: In flow cytometry, cells or beads pass a laser one at a time.

The subject of another assay is nicotinic receptors. The assay can be described thus: MPL antiproliferative effect after pre-treatment with nicotinic agonists or antagonists. To be noted: MPL 5 μM, 72 h; 30 min pre-treatment. It is filed as cell-based. On the procedure:
Cells were pre-treated (30 min) with increasing concentrations of nicotine, carbachol or the receptor antagonists, atropine, mecamylamine, tubocurarine, and α-bungarotoxin. MPL (5 μM) was added and left in the cell culture incubator for 72 h. Each drug concentration was tested in quadruplicate and each experiment was repeated twice. Combine values (mean±SEM) are presented as % control.
In brief, MPL and MPL-SO2 were tested in vitro against a wide range of cancer cell-lines with extensively different disease characteristics. For further detailed studies, human ovarian cancer cell lines OVCAR-3 and A2780 were chosen. Additionally, normal human ovarian surface epithelial cells (HOSE) and were cultured in the presence of MPL (0, 5, 10, 25, 50 and 100 μM) for 72 h. Cell viability was assessed using Trypan blue assay (FIG. 9). Similarly, effect of MPL on the growth of normal epithelial, endothelial, embryonic and fetal cells were investigated (FIG. 10) while cell proliferation was assessed using the SRB assay (FIG. 11). Control (vehicle treated) cells were taken to present 100% proliferation and the MPL treated groups are expressed as percentage of control±SEM. Each drug concentration was tested in quadruplicate and each experiment was repeated at least twice. For statistical comparisons, each drug treated group is compared to the control group using Student's t test. […]

Another assay relates to A2780 cells. The assay can be described thus: SRB cell proliferation assay, A2780. It counts as cell-based, human. As to the method: (§1) Cell proliferation was assessed using the sulforhodamine B (SRB) assay. Cells seeded in 96-well plate (2,000-3,000 cell/well) were treated with MPL (0, 1, 5, 10, 25, 50 and 100 μmol/L) for 72 h. Cells were then fixed, washed and stained with 100 μl of 0.4% (w/v) SRB dissolved in 1% acetic acid. Unbound dye was removed by five washes with 1% acetic acid before air drying. Bound SRB was solubilized with 100 μl of 10 mM Tris base (pH 10.5) and the absorbance read at 570 nm. Exactly the same procedure was used to assess MPL-SO2. Both agents were dissolved in ethanol and diluted with media to give the final concentrations required for cell culture assays.

Assay [2] deals with DU-145 prostate cancer cells. The assay can be described thus: SRB cell proliferation assay, DU-145. It is filed as cell-based. To be noted: for IC50: Homo sapiens. On the procedure: as §1
Assay [3] concerns HEK (Human Embryonic Kidney). The assay can be described thus: SRB cell proliferation assay, HEK. It is filed as cell-based. As to the method: as §1

Like-named read-outs stand apart in the source and are kept apart here.

`C[C@](C#N)(COc1cc(C#N)ccc1C(F)(F)F)NC(=O)c1ccc(SC(F)(F)F)cc1` [MPL, N-[(1S)-1-Cyano-2-(5-cyano-2-trifluoromethyl-phenoxy)-1-methyl-ethyl]-4-trifluoromethylsulfanyl-benzamide]: the “expression of cell cycle regulatory proteins cdk2, cdk4, cyclins A and E” value in assay [1] is “lower levels of cdk2, cdk4, cyclins A, and E”. The “percentage of cells in the G2-M phase, vehicle treated group versus treated group” value in the assay on OVCAR-3 or A2780 cells (25 μM MPL) was “more than three times higher”. The cell cycle progression entry in the assay on OVCAR-3 or A2780 cells (concentration and time-dependent) is listed as “arrested in the G1 phase”. For the same molecule, the “MPL-induced inhibition after pre-treatment with nicotinic agonists or antagonists” value with nicotinic receptors was “neither positively nor negatively affected”. Moreover, the IC50 was found to be 11.3 ± 0.9 µM in the assay with A2780 cells (A2780, human epithelial ovarian cancer (Table 3), read-out: IC50 μM A2780); 10 µM in the assay on A2780 cells (Homo sapiens, A2780, ovarian cancer, 72 h, SRB assay (Table 1), read-out: IC50); 23 µM in assay [2] (DU-145, prostate cancer (Table 2), read-out: IC50 in suppressing proliferation); 23.5 µM in assay [2] (DU-145, prostate cancer, 72 h, SRB assay (Table 1), read-out: IC50); 34.6 ± 0.86 µM in assay [3] (HEK (Table 2), read-out: IC50 in suppressing proliferation); 50.5 µM in assay [3] (HEK, 72 h, SRB assay (Table 1), read-out: IC50). The “effect on DU 145 cells” value in assay [2] (chemo-resistant, androgen insensitive DU 145) is “very effective”.
